Read-outs that look alike come from different tables or passages of the source.
What was measured:
[1] = test system: CCRF-CEM (leukemia); test: NCI five-dose assay; assay type: cell-based; conditions: Homo sapiens
[2] = test system: K-562 (leukemia); test: NCI five-dose assay; assay type: cell-based; conditions: Homo sapiens, K562, K-562, leukemia
[3] = test system: RPMI-8226 (leukemia); test: NCI five-dose assay; assay type: cell-based; conditions: Homo sapiens, RPMI-8226, RPMI-8226, leukemia
[4] = test system: A549/ATCC (NSCL cancer); test: NCI five-dose assay; assay type: cell-based; conditions: Homo sapiens
[5] = test system: HOP-62 (NSCL cancer); test: NCI five-dose assay; assay type: cell-based; conditions: Homo sapiens, HOP-62, HOP-62, NSCL cancer
[6] = test system: HOP-92 (NSCL cancer); test: NCI five-dose assay; assay type: cell-based; conditions: Homo sapiens, HOP-92, HOP-92, NSCL cancer
[7] = test system: NCI-H226 (NSCL cancer); test: NCI five-dose assay; assay type: cell-based; conditions: Homo sapiens
[8] = test system: NCI-H23 (NSCL cancer); test: NCI five-dose assay; assay type: cell-based; conditions: Homo sapiens
[9] = test system: NCI-H322M (NSCL cancer); test: NCI five-dose assay; assay type: cell-based; conditions: Homo sapiens
[10] = test system: NCI-H460 (NSCL cancer); test: NCI five-dose assay; assay type: cell-based; conditions: Homo sapiens
[11] = test system: NCI-H522 (NSCL cancer); test: NCI five-dose assay; assay type: cell-based; conditions: Homo sapiens
[12] = test system: LOX IMVI (melanoma); test: NCI five-dose assay; assay type: cell-based; conditions: Homo sapiens
[13] = test system: MALME-3M (melanoma); test: NCI five-dose assay; assay type: cell-based; conditions: Homo sapiens
[14] = test system: NCI/ADR-RES (breast cancer); test: NCI five-dose assay; assay type: cell-based; conditions: Homo sapiens
[15] = test system: BT-549 (breast cancer); test: NCI five-dose assay; assay type: cell-based; conditions: Homo sapiens, BT-549, BT-549, breast cancer
[16] = test system: SF-268 (CNS cancer); test: NCI five-dose assay; assay type: cell-based; conditions: Homo sapiens, SF-268, SF-268, CNS cancer
[17] = test system: SF-295 (CNS cancer); test: NCI five-dose assay; assay type: cell-based; conditions: Homo sapiens, SF-295, SF-295, CNS cancer
[18] = test system: SF-539 (CNS cancer); test: NCI five-dose assay; assay type: cell-based; conditions: Homo sapiens, SF-539, SF-539, CNS cancer
[19] = test system: SNB-19 (CNS cancer); test: NCI five-dose assay; assay type: cell-based; conditions: Homo sapiens, SNB-19, SNB-19, CNS cancer
[20] = test system: SNB-75 (CNS cancer); test: NCI five-dose assay; assay type: cell-based; conditions: Homo sapiens, SNB-75, SNB-75, CNS cancer
[21] = test system: PC-3 (prostate cancer); test: NCI five-dose assay; assay type: cell-based; conditions: Homo sapiens
[22] = test system: DU-145 (prostate cancer); test: NCI five-dose assay; assay type: cell-based; conditions: Homo sapiens, DU-145, DU-145, prostate cancer
[23] = test system: IGROV-1 (ovarian cancer); test: NCI five-dose assay; assay type: cell-based; conditions: Homo sapiens
[24] = test system: OVCAR-4 (ovarian cancer); test: NCI five-dose assay; assay type: cell-based; conditions: Homo sapiens, OVCAR-4, OVCAR-4, ovarian cancer
[25] = test system: OVCAR-5 (ovarian cancer); test: NCI five-dose assay; assay type: cell-based; conditions: Homo sapiens, OVCAR-5, OVCAR-5, ovarian cancer
[26] = test system: OVCAR-8 (ovarian cancer); test: NCI five-dose assay; assay type: cell-based; conditions: Homo sapiens, OVCAR-8, OVCAR-8, ovarian cancer
[27] = test system: SK-OV-3 (ovarian cancer); test: NCI five-dose assay; assay type: cell-based; conditions: Homo sapiens, SK-OV-3, SK-OV-3, ovarian cancer
[28] = test system: 786-0 (renal cancer); test: NCI five-dose assay; assay type: cell-based; conditions: Homo sapiens, 786-0, 786-0, renal cancer
[29] = test system: A498 (renal cancer); test: NCI five-dose assay; assay type: cell-based; conditions: Homo sapiens
[30] = test system: TK-10 (renal cancer); test: NCI five-dose assay; assay type: cell-based; conditions: Homo sapiens, TK-10, TK-10, renal cancer
[31] = test system: COLO 205 (colon cancer); test: NCI five-dose assay; assay type: cell-based; conditions: Homo sapiens, COLO 205, COLO 205, colon cancer
[32] = test system: HCT-116 (colon cancer); test: NCI five-dose assay; assay type: cell-based; conditions: Homo sapiens, HCT-116, HCT-116, colon cancer
[33] = test system: HCT-15 (colon cancer); test: NCI five-dose assay; assay type: cell-based; conditions: Homo sapiens, HCT-15, HCT-15, colon cancer
[34] = test system: HT29 (colon cancer); test: NCI five-dose assay; assay type: cell-based; conditions: Homo sapiens, HT-29, HT29, colon cancer
[35] = test system: KM12 (colon cancer); test: NCI five-dose assay; assay type: cell-based; conditions: Homo sapiens
[36] = test system: SW-620 (colon cancer); test: NCI five-dose assay; assay type: cell-based; conditions: Homo sapiens, SW-620, SW-620, colon cancer
[37] = test system: 60 cancer cell lines; conditions: over the cell line panel
[38] = test system: 60 cancer cell lines; test: cells; conditions: Homo sapiens
[39] = read-out: GI50 MG_MID, over the cell line panel
[40] = read-out: GI50 Range (min – max), over the cell line panel
[41] = read-out: LC50 MG_MID, over the cell line panel
[42] = read-out: LC50 Range (min – max), over the cell line panel

Compound: COc1ccc(C2C3=C(Sc4[nH]c(=O)sc42)C(=O)c2ccccc2C3=O)cc1OC (stereo not shown) [Compound 4f, 11-(3,4-Dimethoxyphenyl)-3,11-dihydro-2H-benzo[6,7]thiochromeno[2,3-d][1,3]thiazole-2,5,10-trione]
- GI50 [1]: 4.38 µM
- GI50 [2]: 4.97 µM
- GI50 [3]: 4.64 µM
- GI50 [4]: 2.35 µM
- GI50 [5]: 5.87 µM
- GI50 [6]: 5.26 µM
- GI50 [7]: 5.43 µM
- GI50 [8]: 1.68 µM
- GI50 [9]: 3.78 µM
- GI50 [10]: 2.18 µM
- GI50 [11]: 7.91 µM
- GI50 [12]: 1.26 µM
- GI50 [13]: 2.12 µM
- GI50 [14]: 7.07 µM
- GI50 [15]: 2.84 µM
- GI50 [16]: 4.89 µM
- GI50 [17]: 3.77 µM
- GI50 [18]: 3.17 µM
- GI50 [19]: 4.49 µM
- GI50 [20]: 6.64 µM
- GI50 [21]: 5.41 µM
- GI50 [22]: 1.68 µM
- GI50 [23]: 3.35 µM
- GI50 [24]: 2.48 µM
- GI50 [25]: 17.7 µM
- GI50 [26]: 4.02 µM
- GI50 [27]: 13.6 µM
- GI50 [28]: 15.2 µM
- GI50 [29]: 4.91 µM
- GI50 [30]: 17.6 µM
- GI50 [31]: 3.37 µM
- GI50 [32]: 3.47 µM
- GI50 [33]: 3.51 µM
- GI50 [34]: 3.15 µM
- GI50 [35]: 5.99 µM
- GI50 [36]: 3.96 µM
- TGI MG_MID [37]: 14.79 µM
- GI50 [38, 39]: 4.19 µM
- GI50 [38, 40]: 1.26 to 17.7 µM
- CC50 [38, 41]: 47.9 µM
- CC50 [38, 42]: 5.34 to 93 µM

Compound: COc1cc(C2C3=C(Sc4[nH]c(=O)sc42)C(=O)c2ccccc2C3=O)ccc1O (stereo not shown) [Compound 4i, 11-(4-Hydroxy-3-methoxyphenyl)-3,11-dihydro-2H-benzo[6,7]thiochromeno[2,3-d]-[1,3]thiazole-2,5,10-trione]
- GI50 [1]: 3.19 µM
- GI50 ([1]; repeated testing): 1.84 µM
- GI50 ([2]; repeated testing): 1.98 µM
- GI50 ([2]; result printed as symbol): > 100 µM
- GI50 [3]: 1.93 µM
- GI50 ([3]; repeated testing): 1.33 µM
- GI50 [4]: 1.34 µM
- GI50 ([4]; repeated testing): 0.65 µM
- GI50 [5]: 0.4 µM
- GI50 ([5]; repeated testing): 3.6 µM
- GI50 [6]: 1.44 µM
- GI50 ([6]; repeated testing): 2.15 µM
- GI50 [7]: 1.74 µM
- GI50 ([7]; repeated testing): 2.85 µM
- GI50 [8]: 0.95 µM
- GI50 ([8]; repeated testing): 0.41 µM
- GI50 [9]: 2.05 µM
- GI50 ([9]; repeated testing): 1.86 µM
- GI50 [10]: 1.92 µM
- GI50 ([10]; repeated testing): 1.66 µM
- GI50 [11]: 1.96 µM
- GI50 ([11]; repeated testing): 2.12 µM
- GI50 [12]: 0.16 µM
- GI50 ([12]; repeated testing): 0.25 µM
- GI50 [13]: 0.72 µM
- GI50 ([13]; repeated testing): 1.05 µM
- GI50 [14]: 8.39 µM
- GI50 ([14]; repeated testing): 4.5 µM
- GI50 [15]: 2.74 µM
- GI50 ([15]; repeated testing): 0.92 µM
- GI50 [16]: 2.53 µM
- GI50 ([16]; repeated testing): 3.3 µM
- GI50 [17]: 1.71 µM
- GI50 ([17]; repeated testing): 1.14 µM
- GI50 [18]: 3.26 µM
- GI50 ([18]; repeated testing): 3.46 µM
- GI50 [19]: 2.41 µM
- GI50 ([19]; repeated testing): 2.85 µM
- GI50 [20]: 1.26 µM
- GI50 ([20]; repeated testing): 0.67 µM
- GI50 [21]: 1.98 µM
- GI50 ([21]; repeated testing): 2.57 µM
- GI50 [22]: 0.51 µM
- GI50 ([22]; repeated testing): 0.93 µM
- GI50 [23]: 2.48 µM
- GI50 [24]: 2.19 µM
- GI50 ([24]; repeated testing): 1.33 µM
- GI50 [25]: 10.4 µM
- GI50 ([25]; repeated testing): 4.49 µM
- GI50 [26]: 2.85 µM
- GI50 ([26]; repeated testing): 2.05 µM
- GI50 [27]: 8.28 µM
- GI50 ([27]; repeated testing): 5.72 µM
- GI50 [28]: 2.6 µM
- GI50 ([28]; repeated testing): 5.2 µM
- GI50 [29]: 1.95 µM
- GI50 ([29]; repeated testing): 2.11 µM
- GI50 [30]: 5.74 µM
- GI50 ([30]; repeated testing): 2.16 µM
- GI50 [31]: 2.08 µM
- GI50 ([31]; repeated testing): 1.68 µM
- GI50 [32]: 3.36 µM
- GI50 ([32]; repeated testing): 2.46 µM
- GI50 [33]: 2.07 µM
- GI50 ([33]; repeated testing): 1.74 µM
- GI50 [34]: 2.35 µM
- GI50 ([34]; repeated testing): 2.02 µM
- GI50 [35]: 2.25 µM
- GI50 ([35]; repeated testing): 2.51 µM
- GI50 [36]: 2.82 µM
- GI50 ([36]; repeated testing): 3.23 µM
- TGI MG_MID [37]: 10.96 µM
- TGI MG_MID ([37]; repeated testing): (8.51) μM
- GI50 [38, 39]: 1.95 µM
- GI50 ([38]; read-out: GI50 MG_MID, over the cell line panel, repeated testing): 1.7 µM
- GI50 [38, 40]: 0.16 to 41.4 µM
- GI50 ([38]; read-out: GI50 Range (min – max), over the cell line panel, repeated testing): 0.22 to 5.72 µM
- CC50 [38, 41]: 42.7 µM
- CC50 ([38]; read-out: LC50 MG_MID, over the cell line panel, repeated testing): 38 µM
- CC50 [38, 42]: 4.14 to 92.4 µM
- CC50 ([38]; read-out: LC50 Range (min – max), over the cell line panel, repeated testing): 4.93 to 86.6 µM

Compound: COc1cc(C2C3=C(Sc4[nH]c(=O)sc42)C(=O)c2ccccc2C3=O)ccc1OCc1ccccc1 (stereo not shown) [Compound 4e, 11-[4-(Benzyloxy)-3-methoxyphenyl]-3,11-dihydro-2H-benzo[6,7]thiochromeno[2,3-d]-[1,3]thiazole-2,5,10-trione]
- GI50 [1]: 23.4 µM
- GI50 [2]: 19.4 µM
- GI50 [3]: 14.5 µM
- GI50 [4]: 3.16 µM
- GI50 [5]: 14.9 µM
- GI50 [6]: 11.5 µM
- GI50 [7]: 19.2 µM
- GI50 [8]: 3.99 µM
- GI50 [9]: 10.9 µM
- GI50 [10]: 5.39 µM
- GI50 [11]: 15.9 µM
- GI50 [12]: 8.03 µM
- GI50 [13]: 7.12 µM
- GI50 [14]: 22.7 µM
- GI50 [15]: 13.4 µM
- GI50 [16]: 14.1 µM
- GI50 [17]: 5.78 µM
- GI50 [18]: 16.7 µM
- GI50 [19]: 11.3 µM
- GI50 [20]: 7.76 µM
- GI50 [21]: 17.7 µM
- GI50 [22]: 4.19 µM
- GI50 [23]: 15.4 µM
- GI50 [24]: 4.48 µM
- GI50 [25]: 32.1 µM
- GI50 [26]: 13.9 µM
- GI50 [27]: 31.7 µM
- GI50 [28]: 32.6 µM
- GI50 [29]: 20.5 µM
- GI50 [30]: 29.7 µM
- GI50 [31]: 10.3 µM
- GI50 [32]: 15.6 µM
- GI50 [33]: 11.5 µM
- GI50 [34]: 11.2 µM
- GI50 [35]: 16.9 µM
- GI50 [36]: 22.7 µM
- TGI MG_MID [37]: 40.74 µM
- GI50 [38, 39]: 12 µM
- GI50 [38, 40]: 2.62 to 32.6 µM
- CC50 [38, 41]: 85.1 µM
- CC50 [38, 42]: 26.3 to 98.7 µM
